Data from ChEMBL document CHEMBL1201861, “Genomics of Drug Sensitity in Cancer screening data, Wellcome Trust Sanger Institute”.

Legend:
COR-L23 = experiment: cells; type: functional, cell-based; settings: Homo sapiens
Description: SANGER: Inhibition of human COR-L23 cell growth in a cell viability assay.

COR-L279 = experiment: SANGER: Inhibition of human COR-L279 cell growth in a cell viability assay.; type: functional, cell-based
ChaGo-K-1 = experiment: cells; type: functional, cell-based; settings: Homo sapiens
Description: SANGER: Inhibition of human ChaGo-K-1 cell growth in a cell viability assay.

DU-145 = experiment: cells; type: functional, cell-based; settings: Homo sapiens
Description: SANGER: Inhibition of human DU-145 cell growth in a cell viability assay.

EFM-19 = experiment: cells; type: functional, cell-based; settings: Homo sapiens
Description: SANGER: Inhibition of human EFM-19 cell growth in a cell viability assay.

EFO-27 = experiment: cells; type: functional, cell-based; settings: Homo sapiens
Description: SANGER: Inhibition of human EFO-27 cell growth in a cell viability assay.

G-401 = experiment: cells; type: functional, cell-based; settings: Homo sapiens
Description: SANGER: Inhibition of human G-401 cell growth in a cell viability assay.

GCT = experiment: cells; type: functional, cell-based; settings: Homo sapiens
Description: SANGER: Inhibition of human GCT cell growth in a cell viability assay.

GMS-10 = experiment: cells; type: functional, cell-based; settings: Homo sapiens
Description: SANGER: Inhibition of human GMS-10 cell growth in a cell viability assay.

H4 = experiment: cells; type: functional, cell-based; settings: Homo sapiens
Description: SANGER: Inhibition of human H4 cell growth in a cell viability assay.

HCC1419 = experiment: cells; type: functional, cell-based; settings: Homo sapiens
Description: SANGER: Inhibition of human HCC1419 cell growth in a cell viability assay.

HCT-116 = experiment: cells; type: functional, cell-based; settings: Homo sapiens
Description: SANGER: Inhibition of human HCT-116 cell growth in a cell viability assay.

HCT-15 = experiment: cells; type: functional, cell-based; settings: Homo sapiens
Description: SANGER: Inhibition of human HCT-15 cell growth in a cell viability assay.

HOP-92 = experiment: cells; type: functional, cell-based; settings: Homo sapiens
Description: SANGER: Inhibition of human HOP-92 cell growth in a cell viability assay.

HT-3 = experiment: cells; type: functional, cell-based; settings: Homo sapiens
Description: SANGER: Inhibition of human HT-3 cell growth in a cell viability assay.

HuO-3N1 = experiment: cells; type: functional, cell-based; settings: Homo sapiens
Description: SANGER: Inhibition of human HuO-3N1 cell growth in a cell viability assay.

IMR-5 = experiment: cells; type: functional, cell-based; settings: Homo sapiens
Description: SANGER: Inhibition of human IMR-5 cell growth in a cell viability assay.

KYSE-410 = experiment: cells; type: functional, cell-based; settings: Homo sapiens
Description: SANGER: Inhibition of human KYSE-410 cell growth in a cell viability assay.

MDA-MB-361 = experiment: cells; type: functional, cell-based; settings: Homo sapiens
ME-180 = experiment: cells; type: functional, cell-based; settings: Homo sapiens
Description: SANGER: Inhibition of human ME-180 cell growth in a cell viability assay.

MEL-HO = experiment: cells; type: functional, cell-based; settings: Homo sapiens
Description: SANGER: Inhibition of human MEL-HO cell growth in a cell viability assay.

MHH-CALL-2 = experiment: cells; type: functional, cell-based; settings: Homo sapiens
Description: SANGER: Inhibition of human MHH-CALL-2 cell growth in a cell viability assay.

MKN-1 = experiment: cells; type: functional, cell-based; settings: Homo sapiens
Description: SANGER: Inhibition of human MKN1 cell growth in a cell viability assay.

NB1 = experiment: cells; type: functional, cell-based; settings: Homo sapiens
Description: SANGER: Inhibition of human NB1 cell growth in a cell viability assay.

NCI-H2052 = experiment: cells; type: functional, cell-based; settings: Homo sapiens
Description: SANGER: Inhibition of human NCI-H2052 cell growth in a cell viability assay.

NCI-H2081 = experiment: cells; type: functional, cell-based; settings: Homo sapiens
Description: SANGER: Inhibition of human NCI-H2081 cell growth in a cell viability assay.

NCI-H2196 = experiment: cells; type: functional, cell-based; settings: Homo sapiens
Description: SANGER: Inhibition of human NCI-H2196 cell growth in a cell viability assay.

NCI-H2342 = experiment: cells; type: functional, cell-based; settings: Homo sapiens
Description: SANGER: Inhibition of human NCI-H2342 cell growth in a cell viability assay.

NCI-H28 = experiment: cells; type: functional, cell-based; settings: Homo sapiens
Description: SANGER: Inhibition of human NCI-H28 cell growth in a cell viability assay.

NCI-H292 = experiment: cells; type: functional, cell-based; settings: Homo sapiens
Description: SANGER: Inhibition of human NCI-H292 cell growth in a cell viability assay.

NCI-H524 = experiment: cells; type: functional, cell-based; settings: Homo sapiens
Description: SANGER: Inhibition of human NCI-H524 cell growth in a cell viability assay.

NCI-H716 = experiment: cells; type: functional, cell-based; settings: Homo sapiens
Description: SANGER: Inhibition of human NCI-H716 cell growth in a cell viability assay.

NCI-H810 = experiment: cells; type: functional, cell-based; settings: Homo sapiens
Description: SANGER: Inhibition of human NCI-H810 cell growth in a cell viability assay.

SNU-16 = experiment: cells; type: functional, cell-based; settings: Homo sapiens
Description: SANGER: Inhibition of human NCI-SNU-16 cell growth in a cell viability assay.

PANC-08-13 = experiment: cells; type: functional, cell-based; settings: Homo sapiens
Description: SANGER: Inhibition of human PANC-08-13 cell growth in a cell viability assay.

RO82-W-1 = experiment: cells; type: functional, cell-based; settings: Homo sapiens
Description: SANGER: Inhibition of human RO82-W-1 cell growth in a cell viability assay.

RPMI 8402 = experiment: SANGER: Inhibition of human RPMI-8402 cell growth in a cell viability assay.; type: functional, cell-based
RT-112 = experiment: cells; type: functional, cell-based; settings: Homo sapiens
Description: SANGER: Inhibition of human RT-112 cell growth in a cell viability assay.

SCC-9 = experiment: cells; type: functional, cell-based; settings: Homo sapiens
Description: SANGER: Inhibition of human SCC-9 cell growth in a cell viability assay.

SF-295 = experiment: cells; type: functional, cell-based; settings: Homo sapiens
Description: SANGER: Inhibition of human SF295 cell growth in a cell viability assay.

SK-MEL-28 = experiment: cells; type: functional, cell-based; settings: Homo sapiens
Description: SANGER: Inhibition of human SK-MEL-28 cell growth in a cell viability assay.

SK-MEL3 = experiment: cells; type: functional, cell-based, SK-MEL-3; settings: Homo sapiens
Description: SANGER: Inhibition of human SK-MEL-3 cell growth in a cell viability assay.

ST486 = experiment: SANGER: Inhibition of human ST486 cell growth in a cell viability assay.; type: functional, cell-based
SUP-T1 = experiment: cells; type: functional, cell-based; settings: Homo sapiens
Description: SANGER: Inhibition of human SUP-T1 cell growth in a cell viability assay.

SW1088 = experiment: cells; type: functional, cell-based; settings: Homo sapiens
Description: SANGER: Inhibition of human SW1088 cell growth in a cell viability assay.

SW48 = experiment: cells; type: functional, cell-based; settings: Homo sapiens
Description: SANGER: Inhibition of human SW48 cell growth in a cell viability assay.

SW626 = experiment: cells; type: functional, cell-based; settings: Homo sapiens
Description: SANGER: Inhibition of human SW626 cell growth in a cell viability assay.

SW756 = experiment: cells; type: functional, cell-based; settings: Homo sapiens
Description: SANGER: Inhibition of human SW756 cell growth in a cell viability assay.

SW780 = experiment: cells; type: functional, cell-based; settings: Homo sapiens
Description: SANGER: Inhibition of human SW780 cell growth in a cell viability assay.

SW837 = experiment: cells; type: functional, cell-based; settings: Homo sapiens
Description: SANGER: Inhibition of human SW837 cell growth in a cell viability assay.

8505C = experiment: cells; type: functional, cell-based; settings: Homo sapiens
Description: SANGER: Inhibition of human 8505C cell growth in a cell viability assay.

A253 cell line = experiment: cells; type: functional, cell-based; settings: Homo sapiens
Description: SANGER: Inhibition of human A253 cell growth in a cell viability assay.

BC1 cell line = experiment: SANGER: Inhibition of human BC-1 cell growth in a cell viability assay.; type: functional, cell-based
BPH-1 = experiment: cells; type: functional, cell-based; settings: Homo sapiens
Description: SANGER: Inhibition of human BPH-1 cell growth in a cell viability assay.

CA46 = experiment: cells; type: functional, cell-based; settings: Homo sapiens
Description: SANGER: Inhibition of human CA46 cell growth in a cell viability assay.

CAL-148 = experiment: cells; type: functional, cell-based; settings: Homo sapiens
Description: SANGER: Inhibition of human CAL-148 cell growth in a cell viability assay.

CAL-27 = experiment: cells; type: functional, cell-based; settings: Homo sapiens
Description: SANGER: Inhibition of human CAL-27 cell growth in a cell viability assay.

TE-441-T = experiment: cells; type: functional, cell-based; settings: Homo sapiens
Description: SANGER: Inhibition of human TE-441-T cell growth in a cell viability assay.

U2OS = experiment: cells; type: functional, cell-based, U-2-OS; settings: Homo sapiens
Description: SANGER: Inhibition of human U-2-OS cell growth in a cell viability assay.

UACC-62 = experiment: cells; type: functional, cell-based; settings: Homo sapiens
Description: SANGER: Inhibition of human UACC-62 cell growth in a cell viability assay.

UMUC3 = experiment: cells; type: functional, cell-based; settings: Homo sapiens
Description: SANGER: Inhibition of human UM-UC-3 cell growth in a cell viability assay.

YKG-1 = experiment: cells; type: functional, cell-based; settings: Homo sapiens
Description: SANGER: Inhibition of human YKG-1 cell growth in a cell viability assay.

CESS = experiment: SANGER: Inhibition of human CESS cell growth in a cell viability assay.; type: functional, cell-based
CHP-126 = experiment: cells; type: functional, cell-based; settings: Homo sapiens
Description: SANGER: Inhibition of human CHP-126 cell growth in a cell viability assay.

## CCNC(=O)c1noc(-c2cc(C(C)C)c(O)cc2O)c1-c1ccc(CN2CCOCC2)cc1 [LUMINESPIB]
COR-L23
  IC50: 27.1 nM
COR-L279
  IC50: 158 nM
ChaGo-K-1
  IC50: 127 nM
DU-145
  IC50: 12.9 nM
EFM-19
  IC50: > 256 nM
EFO-27
  IC50: 10.2 nM
G-401
  IC50: 10.3 nM
GCT
  IC50: 41.6 nM
GMS-10
  IC50: 134 nM
H4
  IC50: 13.7 nM
HCC1419
  IC50: 95.4 nM
HCT-116
  IC50: 152 nM
HCT-15
  IC50: 66 nM
HOP-92
  IC50: 77.1 nM
HT-3
  IC50: > 256 nM
HuO-3N1
  IC50: > 256 nM
IMR-5
  IC50: 44.9 nM
KYSE-410
  IC50: 15.9 nM
MDA-MB-361
  IC50: 58.7 nM
ME-180
  IC50: 47.8 nM
MEL-HO
  IC50: 16.4 nM
MHH-CALL-2
  IC50: > 256 nM
MKN-1
  IC50: 49.3 nM
NB1
  IC50: 144 nM
NCI-H2052
  IC50: 104 nM
NCI-H2081
  IC50: 152 nM
NCI-H2196
  IC50: 217 nM
NCI-H2342
  IC50: 17.6 nM
NCI-H28
  IC50: > 256 nM
NCI-H292
  IC50: 17.1 nM
NCI-H524
  IC50: > 256 nM
NCI-H716
  IC50: > 256 nM
NCI-H810
  IC50: 17.2 nM
SNU-16
  IC50: > 256 nM
PANC-08-13
  IC50: 77.2 nM
RO82-W-1
  IC50: > 256 nM
RPMI 8402
  IC50: > 256 nM
RT-112
  IC50: 5.35 nM
SCC-9
  IC50: 58.7 nM
SF-295
  IC50: 17.2 nM
SK-MEL-28
  IC50: > 256 nM
SK-MEL3
  IC50: 48 nM
ST486
  IC50: 55.3 nM
SUP-T1
  IC50: 67.6 nM
SW1088
  IC50: > 256 nM
SW48
  IC50: 40.3 nM
SW626
  IC50: 21.2 nM
SW756
  IC50: 41.6 nM
SW780
  IC50: > 256 nM
SW837
  IC50: 30.1 nM
8505C
  IC50: 8.21 nM
A253 cell line
  IC50: 50.5 nM
BC1 cell line
  IC50: 33.7 nM
BPH-1
  IC50: 10.3 nM
CA46
  IC50: 54.3 nM
CAL-148
  IC50: 243 nM
CAL-27
  IC50: 81.6 nM
TE-441-T
  IC50: 49.3 nM
U2OS
  IC50: 39.4 nM
UACC-62
  IC50: 121 nM
UMUC3
  IC50: 49.5 nM
YKG-1
  IC50: 11.6 nM
CESS
  IC50: 31.2 nM
CHP-126
  IC50: 75.7 nM

## CO[C@@]12[C@H](COC(N)=O)C3=C(C(=O)C(C)=C(N)C3=O)N1C[C@@H]1N[C@@H]12 [MITOMYCIN]
COR-L23
  IC50: 241 nM
COR-L279
  IC50: < 62.5 nM
ChaGo-K-1
  IC50: 1910 nM
DU-145
  IC50: < 62.5 nM
EFM-19
  IC50: 2090 nM
EFO-27
  IC50: 1130 nM
G-401
  IC50: 634 nM
GCT
  IC50: 4600 nM
GMS-10
  IC50: 3840 nM
H4
  IC50: < 62.5 nM
HCC1419
  IC50: 3480 nM
HCT-116
  IC50: 1020 nM
HCT-15
  IC50: 465 nM
HOP-92
  IC50: 1940 nM
HT-3
  IC50: < 62.5 nM
HuO-3N1
  IC50: 6450 nM
IMR-5
  IC50: < 62.5 nM
KYSE-410
  IC50: 584 nM
MDA-MB-361
  IC50: 809 nM
ME-180
  IC50: 40.1 nM
MEL-HO
  IC50: 39.4 nM
MHH-CALL-2
  IC50: < 62.5 nM
MKN-1
  IC50: 541 nM
NB1
  IC50: 187 nM
NCI-H2052
  IC50: 1990 nM
NCI-H2081
  IC50: 741 nM
NCI-H2196
  IC50: 886 nM
NCI-H2342
  IC50: 62.5 nM
NCI-H28
  IC50: 2440 nM
NCI-H292
  IC50: 884 nM
NCI-H524
  IC50: 2700 nM
NCI-H716
  IC50: 2820 nM
NCI-H810
  IC50: 252 nM
SNU-16
  IC50: 6740 nM
PANC-08-13
  IC50: 2400 nM
RO82-W-1
  IC50: 13300 nM
RPMI 8402
  IC50: 17.1 nM
RT-112
  IC50: 178 nM
SCC-9
  IC50: 3790 nM
SF-295
  IC50: < 62.5 nM
SK-MEL-28
  IC50: > 16000 nM
SK-MEL3
  IC50: 711 nM
ST486
  IC50: 494 nM
SUP-T1
  IC50: 110 nM
SW1088
  IC50: 4670 nM
SW48
  IC50: 193 nM
SW626
  IC50: 286 nM
SW756
  IC50: 597 nM
SW780
  IC50: > 16000 nM
SW837
  IC50: 276 nM
8505C
  IC50: 430 nM
A253 cell line
  IC50: 346 nM
BC1 cell line
  IC50: 88.8 nM
BPH-1
  IC50: 29.9 nM
CA46
  IC50: 1020 nM
CAL-148
  IC50: 17.8 nM
CAL-27
  IC50: 41.2 nM
TE-441-T
  IC50: 1600 nM
U2OS
  IC50: > 16000 nM
UACC-62
  IC50: 2160 nM
UMUC3
  IC50: 102 nM
YKG-1
  IC50: 545 nM
CESS
  IC50: 225 nM
CHP-126
  IC50: 72.4 nM
